Patent publication US20230085307A1, “PYRIDAZINONE COMPOUND AND HERBICIDE” (NISSAN CHEMICAL CORPORATION, priority 2019, published 2023)

Legend:
[1] = test system: redroot pigweed; experiment: Test Example 5: herbicidal effect by foliage application, plastic box (Table 20, symbol N); assay type: in vivo, redroot pigweed (Amaranthus retroflexus); conditions: foliage application, 320 g/ha, evaluated three weeks after application
Method in brief: (§1)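 Sow seeds spot-wise in sterilized diluvial soil; cover with ~1.5 cm soil. Grow 14 days in greenhouse, 25° C. to 30° C. Spray foliage with emulsion diluted to predetermined amount. Rate effect after 3 weeks.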

[2] = test system: windgrass; experiment: Test Example 5: herbicidal effect by foliage application, plastic box (Table 20, symbol L); assay type: in vivo, windgrass (Apera spica-venti); conditions: foliage application, 320 g/ha, evaluated three weeks after application
Method in brief: as §1

[3] = test system: late watergrass; experiment: Test Example 1: herbicidal activity, application before weed generation under submerged conditions (Table 16, symbol A); assay type: in vivo, late watergrass (Echinochloa oryzicola); conditions: 320 g/ha applied herbicide
Method in brief: (§2)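 Emulsion formulation, water-diluted to set dose, was put onto the flooded surface (4 cm depth, alluvial soil) the same day weeds were sown and 2.5-leaf rice transplanted. After 3 weeks at 25-30 °C under glass, each species was rated 0 (≤5% kill) to 5 (≥90% kill).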

[4] = test system: lambsquarters; experiment: Test Example 5: herbicidal effect by foliage application, plastic box (Table 20, symbol O); assay type: in vivo, lambsquarters (Chenopodium album); conditions: foliage application, 320 g/ha, evaluated three weeks after application
Method in brief: as §1

[5] = test system: wild oat; experiment: Test Example 5: herbicidal effect by foliage application, plastic box (Table 20, symbol I); assay type: in vivo, wild oat (Avena fatua); conditions: foliage application, 320 g/ha, evaluated three weeks after application
Method in brief: as §1

[6] = test system: blackgrass; experiment: Test Example 5: herbicidal effect by foliage application, plastic box (Table 20, symbol J); assay type: in vivo, blackgrass (Alopecurus myosuroides); conditions: foliage application, 320 g/ha, evaluated three weeks after application
Method in brief: as §1

[7] = test system: southern crabgrass; experiment: Test Example 5: herbicidal effect by foliage application, plastic box (Table 20, symbol F); assay type: in vivo, southern crabgrass (Digitaria ciliaris); conditions: foliage application, 320 g/ha, evaluated three weeks after application
Method in brief: as §1

[8] = test system: barnyard grass; experiment: Test Example 5: herbicidal effect by foliage application, plastic box (Table 20, symbol H); assay type: in vivo, barnyard grass (Echinochloa crus-galli); conditions: foliage application, 320 g/ha, evaluated three weeks after application
Method in brief: as §1

[9] = test system: green foxtail; experiment: Test Example 5: herbicidal effect by foliage application, plastic box (Table 20, symbol G); assay type: in vivo, green foxtail (Setaria viridis); conditions: foliage application, 320 g/ha, evaluated three weeks after application
Method in brief: as §1

[10] = test system: lambsquarters; experiment: Test Example 4: herbicidal effect by soil treatment (Table 19, symbol O); assay type: in vivo, lambsquarters (Chenopodium album); conditions: amount of applied herbicide 320 g/ha
Method in brief: (§3)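 Applied as a water-diluted emulsion, the compound was sprayed onto soil covering newly sown seeds. Evaluation came three weeks after application, in a greenhouse held at 25° C. to 30° C.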

[11] = test system: barnyard grass; experiment: Test Example 3: herbicidal effect by foliage application, Wagner pot (Table 18, symbol H); assay type: in vivo, barnyard grass (Echinochloa crus-galli); conditions: amount of applied herbicide 320 g/ha
Method in brief: (§4)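 Plants were sown in alluvial soil held under 0.1–0.5 cm standing water and grown 14 days in a greenhouse at 25–30 °C. An emulsifiable formulation, water-diluted to the set dose, was then sprayed onto the foliage, and effects were scored three weeks later using previously defined criteria.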

[12] = test system: oval-leafed pondweed; experiment: Test Example 1: herbicidal activity, application before weed generation under submerged conditions (Table 16, symbol C); assay type: in vivo, oval-leafed pondweed (Monochoria vaginalis); conditions: 320 g/ha applied herbicide
Method in brief: as §2

[13] = test system: Chinese sprangletop; experiment: Test Example 3: herbicidal effect by foliage application, Wagner pot (Table 18, symbol D); assay type: in vivo, chinese sprangletop (Leptochloa chinensis); conditions: amount of applied herbicide 320 g/ha
Method in brief: as §4

[14] = test system: persian speedwell; experiment: Test Example 5: herbicidal effect by foliage application, plastic box (Table 20, symbol R); assay type: in vivo, Persian speedwell (Veronica persica); conditions: foliage application, 320 g/ha, evaluated three weeks after application
Method in brief: as §1

[15] = test system: persian speedwell; experiment: Test Example 4: herbicidal effect by soil treatment (Table 19, symbol R); assay type: in vivo, Persian speedwell (Veronica persica); conditions: amount of applied herbicide 320 g/ha
Method in brief: as §3

[16] = test system: Italian ryegrass; experiment: Test Example 5: herbicidal effect by foliage application, plastic box (Table 20, symbol K); assay type: in vivo, Italian ryegrass (Lolium multiflorum); conditions: foliage application, 320 g/ha, evaluated three weeks after application
Method in brief: as §1

[17] = test system: southern crabgrass; experiment: Test Example 4: herbicidal effect by soil treatment (Table 19, symbol F); assay type: in vivo, southern crabgrass (Digitaria ciliaris); conditions: amount of applied herbicide 320 g/ha
Method in brief: as §3

[18] = test system: velvetleaf; experiment: Test Example 4: herbicidal effect by soil treatment (Table 19, symbol M); assay type: in vivo, velvetleaf (Abutilon theophrasti); conditions: amount of applied herbicide 320 g/ha
Method in brief: as §3

[19] = test system: chickweed; experiment: Test Example 5: herbicidal effect by foliage application, plastic box (Table 20, symbol P); assay type: in vivo, common chickweed (Stellaria media); conditions: foliage application, 320 g/ha, evaluated three weeks after application
Method in brief: as §1

[20] = test system: blackgrass; experiment: Test Example 4: herbicidal effect by soil treatment (Table 19, symbol J); assay type: in vivo, blackgrass (Alopecurus myosuroides); conditions: amount of applied herbicide 320 g/ha
Method in brief: as §3

[21] = test system: redroot pigweed; experiment: Test Example 4: herbicidal effect by soil treatment (Table 19, symbol N); assay type: in vivo, redroot pigweed (Amaranthus retroflexus); conditions: amount of applied herbicide 320 g/ha
Method in brief: as §3

[22] = test system: chickweed; experiment: Test Example 4: herbicidal effect by soil treatment (Table 19, symbol P); assay type: in vivo, common chickweed (Stellaria media); conditions: amount of applied herbicide 320 g/ha
Method in brief: as §3

[23] = test system: barnyard grass; experiment: Test Example 4: herbicidal effect by soil treatment (Table 19, symbol H); assay type: in vivo, barnyard grass (Echinochloa crus-galli); conditions: amount of applied herbicide 320 g/ha
Method in brief: as §3

[24] = test system: windgrass; experiment: Test Example 4: herbicidal effect by soil treatment (Table 19, symbol L); assay type: in vivo, windgrass (Apera spica-venti); conditions: amount of applied herbicide 320 g/ha
Method in brief: as §3

[25] = test system: velvetleaf; experiment: Test Example 5: herbicidal effect by foliage application, plastic box (Table 20, symbol M); assay type: in vivo, velvetleaf (Abutilon theophrasti); conditions: foliage application, 320 g/ha, evaluated three weeks after application
Method in brief: as §1

[26] = test system: green foxtail; experiment: Test Example 4: herbicidal effect by soil treatment (Table 19, symbol G); assay type: in vivo, green foxtail (Setaria viridis); conditions: amount of applied herbicide 320 g/ha
Method in brief: as §3

[27] = test system: wild oat; experiment: Test Example 4: herbicidal effect by soil treatment (Table 19, symbol I); assay type: in vivo, wild oat (Avena fatua); conditions: amount of applied herbicide 320 g/ha
Method in brief: as §3

[28] = test system: Japanese bulrush; experiment: Test Example 1: herbicidal activity, application before weed generation under submerged conditions (Table 16, symbol B); assay type: in vivo, Japanese bulrush (Schoenoplectus juncoides); conditions: 320 g/ha applied herbicide
Method in brief: as §2

[29] = test system: false cleavers; experiment: Test Example 4: herbicidal effect by soil treatment (Table 19, symbol Q); assay type: in vivo, false cleavers (Galium spurium); conditions: amount of applied herbicide 320 g/ha
Method in brief: as §3

[30] = test system: Italian ryegrass; experiment: Test Example 4: herbicidal effect by soil treatment (Table 19, symbol K); assay type: in vivo, Italian ryegrass (Lolium multiflorum); conditions: amount of applied herbicide 320 g/ha
Method in brief: as §3

SMILES: COc1cc(F)ccc1-c1sc2ccc(NC(C)=O)cc2c1-c1c(O)c(C)nn(C)c1=O [2-175]
- herbicidal effect on N: redroot pigweed (criteria 0-5) [1]: 5 (Herbicidal rate of 90% or more (almost completely withered))
- herbicidal effect on L: windgrass (criteria 0-5) [2]: 5 (Herbicidal rate of 90% or more (almost completely withered))
- Herbicidal effect on A: late watergrass (grade 0-5) [3]: 3 (Herbicidal rate of 40% or more and less than 70%)
- herbicidal effect on O: lambsquarters (criteria 0-5) [4]: 5 (Herbicidal rate of 90% or more (almost completely withered))
- herbicidal effect on I: wild oat (criteria 0-5) [5]: 3 (Herbicidal rate of 40% or more and less than 70%)
- herbicidal effect on J: blackgrass (criteria 0-5) [6]: 5 (Herbicidal rate of 90% or more (almost completely withered))
- herbicidal effect on F: southern crabgrass (criteria 0-5) [7]: 3 (Herbicidal rate of 40% or more and less than 70%)
- herbicidal effect on H: barnyard grass (criteria 0-5) [8]: 1 (Herbicidal rate of 5% or more and less than 20%)
- herbicidal effect on G: green foxtail (criteria 0-5) [9]: 4 (Herbicidal rate of 70% or more and less than 90%)
- O: lambsquarters, herbicidal effect rating [10]: 4 (Herbicidal rate of 70% or more and less than 90%)
- herbicidal effect on H: barnyard grass [11]: 4 (Herbicidal rate of 70% or more and less than 90%)
- Herbicidal effect on C: oval-leafed pondweed (grade 0-5) [12]: 0 (Herbicidal rate of 5% or less (almost no effect))
- herbicidal effect on D: Chinese sprangletop [13]: 3 (Herbicidal rate of 40% or more and less than 70%)
- herbicidal effect on R: persian speedwell (criteria 0-5) [14]: 1 (Herbicidal rate of 5% or more and less than 20%)
- R: persian speedwell, herbicidal effect rating [15]: 0 (Herbicidal rate of 5% or less (almost no effect))
- herbicidal effect on K: Italian ryegrass (criteria 0-5) [16]: 0 (Herbicidal rate of 5% or less (almost no effect))
- F: southern crabgrass, herbicidal effect rating [17]: 0 (Herbicidal rate of 5% or less (almost no effect))
- M: velvetleaf, herbicidal effect rating [18]: 0 (Herbicidal rate of 5% or less (almost no effect))
- herbicidal effect on P: chickweed (criteria 0-5) [19]: 5 (Herbicidal rate of 90% or more (almost completely withered))
- J: blackgrass, herbicidal effect rating [20]: 0 (Herbicidal rate of 5% or less (almost no effect))
- N: redroot pigweed, herbicidal effect rating [21]: 4 (Herbicidal rate of 70% or more and less than 90%)
- P: chickweed, herbicidal effect rating [22]: 0 (Herbicidal rate of 5% or less (almost no effect))
- H: barnyard grass, herbicidal effect rating [23]: 0 (Herbicidal rate of 5% or less (almost no effect))
- L: windgrass, herbicidal effect rating [24]: 0 (Herbicidal rate of 5% or less (almost no effect))
- herbicidal effect on M: velvetleaf (criteria 0-5) [25]: 3 (Herbicidal rate of 40% or more and less than 70%)
- G: green foxtail, herbicidal effect rating [26]: 0 (Herbicidal rate of 5% or less (almost no effect))
- I: wild oat, herbicidal effect rating [27]: 0 (Herbicidal rate of 5% or less (almost no effect))
- Herbicidal effect on B: Japanese bulrush (grade 0-5) [28]: 0 (Herbicidal rate of 5% or less (almost no effect))
- Q: false cleavers, herbicidal effect rating [29]: 0 (Herbicidal rate of 5% or less (almost no effect))
- K: Italian ryegrass, herbicidal effect rating [30]: 0 (Herbicidal rate of 5% or less (almost no effect))
